From publication PMC11855827, “High-Throughput Screening of Five Compound Libraries for Anthelmintic Activity and Toxicity Leads to the Discovery of Two Flavonoid Compounds” (International Journal of Molecular Sciences, 2025)
Structures can show the parent of a compound that is named as a salt. Where two headings read alike, the source gives them in different places.

System: C. elegans
Assay: microbe, parasite or virus in culture
Details: Caenorhabditis elegans
[1] = 0 h, read-out: Percentage of motility inhibition 0 h, Table S2, C. elegans SS assay, 110 μM, 0 h, averages of 4 data points
[2] = 24 h, read-out: Percentage of motility inhibition 24 h, Table S2, C. elegans SS assay, 110 μM, 24 h, averages of 4 data points
[3] = 0 h, read-out: Percentage of motility inhibition 0 h
[4] = 24 h, read-out: Percentage of motility inhibition 24 h

| SMILES | inhibition at 110 µM [1] [%] | inhibition at 110 µM [2] [%] | inhibition at 110 µM [3] [%] | inhibition at 110 µM [4] [%] |
| --- | --- | --- | --- | --- |
| CC(C)=CCC[C@](C)(O)[C@H]1CC[C@]2(C)[C@@H]1[C@H](O)C[C@@H]1[C@@]3(C)CC[C@H](O)C(C)(C)[C@@H]3[C@@H](O[C@@H]3O[C@H](CO)[C@@H](O)[C@H](O)[C@H]3O[C@@H]3O[C@@H](C)[C@H](O)[C@@H](O)[C@H]3O)C[C@]12C [Ginsenoside Rg2] | 8 | 0 |  |  |
| CC(C)=CC/C=C(\C)[C@H]1CC[C@]2(C)[C@@H]1[C@H](O)C[C@@H]1[C@@]3(C)CC[C@H](O[C@@H]4O[C@H](CO)[C@@H](O)[C@H](O)[C@H]4O[C@@H]4O[C@H](CO)[C@@H](O)[C@H](O)[C@H]4O)C(C)(C)[C@@H]3CC[C@]12C [Ginsenoside Rg5] | 0 | 2 |  |  |
| CC(C)=CCC[C@](C)(O)[C@H]1CC[C@]2(C)[C@@H]1[C@H](O)C[C@@H]1[C@@]3(C)CC[C@H](O)C(C)(C)[C@@H]3[C@@H](O[C@@H]3O[C@H](CO)[C@@H](O)[C@H](O)[C@H]3O)C[C@]12C [Ginsenoside Rh1] | 0 | 9 |  |  |
| CC(C)=CCC[C@](C)(O)[C@H]1CC[C@]2(C)[C@@H]1[C@H](O)C[C@@H]1[C@@]3(C)CC[C@H](O[C@@H]4O[C@H](CO)[C@@H](O)[C@H](O)[C@H]4O)C(C)(C)[C@@H]3CC[C@]12C [Ginsenoside Rh2] | 34 | 38 |  |  |
| CC1(C)C=Cc2c(ccc3c2OC[C@@H](c2ccc(O)cc2O)C3)O1 [Glabridin] | 26 | 6 |  |  |
| CC(C)=CCc1cc([C@@H]2CC(=O)c3ccc(O)c(CC=C(C)C)c3O2)ccc1O [Glabrol] | 11 | 9 |  |  |
| COc1cc2c(cc1OC)-c1c(OC)c(OC)cc3c1[C@H](C2)N(C)CC3 [Glauci ne] | 0 | 11 |  |  |
| C=C1C(=O)[C@@]23[C@H](O)C[C@@H]4C(C)(C)C(=O)CC[C@@]4(C)[C@@H]2CC[C@@H]1[C@H]3O [Glaucocalyxin A] | 0 | 7 |  |  |
| N[C@H]1C(O)O[C@H](CO)[C@@H](O)[C@@H]1O (some centres unmarked) [Glucosamine] | 8 | 4 |  |  |
| COc1cc2c(=O)c(-c3ccc(O)cc3)coc2cc1O [Glycitein] | 0 | 0 |  |  |
| CC1(C)[C@@H](O[C@H]2O[C@H](C(=O)O)[C@@H](O)[C@H](O)[C@H]2O[C@@H]2O[C@H](C(=O)O)[C@@H](O)[C@H](O)[C@H]2O)CC[C@]2(C)[C@H]3C(=O)C=C4[C@@H]5C[C@@](C)(C(=O)O)CC[C@]5(C)CC[C@@]4(C)[C@]3(C)CC[C@@H]12 [Glycyrrhizic acid] | 0 | 0 |  |  |
| Cc1cc2c(C(C)C)c(O)c(O)c(C=O)c2c(O)c1-c1c(C)cc2c(C(C)C)c(O)c(O)c(C=O)c2c1O [Gossypol] | 0 | 26 |  |  |
| CN(C)Cc1c[nH]c2ccccc12 [Gramine] | 0 | 0 |  |  |
| C=C1C(=O)O[C@@H]2C[C@@]3(C)[C@@H](O)C[C@@H](O)C(=C)[C@@H]3C[C@H]12 [Granilin] | 4 | 13 |  |  |
| COC1=CC(=O)C[C@@H](C)[C@]12Oc1c(Cl)c(OC)cc(OC)c1C2=O [Griseofulvin] | 3 | 1 |  |  |
| COc1ccccc1O [Guaiacol] | 6 | 10 |  |  |
| COc1ccccc1OCC(O)CO (centres unmarked) [Guaifenesin] | 46 | 27 |  |  |
| C/C=C1\C(=O)C[C@H]2[C@@H]3CCC4=CC(=O)CC[C@]4(C)[C@H]3CC[C@]12C [Guggulsterone] |  |  | 0 | 17 |
| O=C(O)C1=CCCNC1 [Guvacine hydrochloride] | 0 | 0 |  |  |
| CC(C)=CCC[C@](C)(O[C@@H]1O[C@H](CO[C@@H]2O[C@H](CO)[C@@H](O)[C@H](O)[C@H]2O)[C@@H](O)[C@H](O)[C@H]1O)[C@H]1CC[C@]2(C)[C@@H]1[C@H](O)C[C@@H]1[C@@]3(C)CC[C@H](O[C@@H]4O[C@H](CO)[C@@H](O)[C@H](O)[C@H]4O)C(C)(C)[C@@H]3CC[C@]12C [Gypenoside XVII] | 4 | 4 |  |  |
| CC1(C)CC[C@]2(C(=O)O)CC[C@]3(C)C(=CC[C@@H]4[C@@]5(C)CC[C@H](O)[C@@](C)(C=O)[C@@H]5CC[C@]43C)[C@@H]2C1 [Gypsogenin] | 10 | 10 |  |  |
| O=C(CC1NCCCC1O)Cn1cnc2cc(Br)c(Cl)cc2c1=O (centres unmarked) [Halofuginone] | 18 | 11 |  |  |
| Cc1nccc2c1[nH]c1ccccc12 [Harmane] | 0 | 6 |  |  |
| COc1ccc2c(c1)[nH]c1c(C)nccc12 [Harmine] |  |  | 36 | 4 |
| Cc1[nH]ccc2c1[nH]c1cc(=O)ccc12 [Harmol] | 0 | 0 |  |  |
| C[C@]1(OC(=O)/C=C/c2ccccc2)C[C@@H](O)[C@]2(O)C=CO[C@@H](O[C@@H]3O[C@H](CO)[C@@H](O)[C@H](O)[C@H]3O)[C@@H]21 [Harpagoside] | 9 | 30 |  |  |

| SMILES | inhibition at 110 µM [1] [%] | inhibition at 110 µM [2] [%] | inhibition at 110 µM [3] [%] | inhibition at 110 µM [4] [%] |
| --- | --- | --- | --- | --- |
| COC(=O)C[C@](O)(CCC(C)(C)O)C(=O)O[C@@H]1C(OC)=C[C@]23CCCN2CCc2cc4c(cc2[C@H]13)OCO4 [Harringtonine] |  | 0 |  |  |
| C[C@@H]1O[C@@H](O[C@H]2[C@H](O[C@H]3CC[C@]4(C)[C@H]5CC=C6[C@@H]7CC(C)(C)CC[C@]7(C(=O)O)CC[C@@]6(C)[C@]5(C)CC[C@H]4C3(C)C)OC[C@H](O[C@@H]3O[C@H](CO)[C@@H](O)[C@H](O)[C@H]3O)[C@@H]2O)[C@H](O)[C@H](O)[C@H]1O [Hederacolchiside A1] | 0 | 0 |  |  |
| CC1(C)CC[C@]2(C(=O)O)CC[C@]3(C)C(=CC[C@@H]4[C@@]5(C)CC[C@H](O)[C@@](C)(CO)[C@@H]5CC[C@]43C)[C@@H]2C1 [Hederagenin] |  |  | 30 | 21 |
| C[C@@H]1O[C@@H](O[C@H]2[C@H](O[C@H]3CC[C@]4(C)[C@H]5CC=C6[C@@H]7CC(C)(C)CC[C@]7(C(=O)O[C@@H]7O[C@H](CO[C@@H]8O[C@H](CO)[C@@H](O[C@@H]9O[C@@H](C)[C@H](O)[C@@H](O)[C@H]9O)[C@H](O)[C@H]8O)[C@@H](O)[C@H](O)[C@H]7O)CC[C@@]6(C)[C@]5(C)CC[C@H]4C3(C)C)OC[C@H](O)[C@@H]2O)[C@H](O)[C@H](O)[C@H]1O [Hederasaponin B] | 11 | 3 |  |  |
| O=c1c(O)c(-c2ccc(O)cc2)oc2c(O)c(O)cc(O)c12 [Herbacetin] |  |  | 4 | 13 |
| COc1ccc([C@@H]2CC(=O)c3c(O)cc(O)cc3O2)cc1O [Hesperetin] | 21 | 5 |  |  |
| CCCCC(O)(Cn1cncn1)c1ccc(Cl)cc1Cl (centres unmarked) [Hexaconazole] | 14 | 22 |  |  |
| CCCCC(CC)CN1CN(CC(CC)CCCC)CC(C)(N)C1 (centres unmarked) [Hexetidine] | 46 | 39 |  |  |
| O=C(O)[C@H]1O[C@@H](Oc2c(O)cc(O)c3c(=O)c(O)c(-c4ccc(O)c(O)c4)oc23)[C@H](O)[C@@H](O)[C@@H]1O [Hibifolin] | 6 | 1 |  |  |
| COc1c(O)cc2oc(-c3ccc(O)cc3)cc(=O)c2c1O [Hispidulin] |  |  | 0 | 33 |
| NCCc1c[nH]cn1 [Histamine] | 5 | 6 |  |  |
| CN(C)CCc1ccc(O)cc1 [Hordenine] | 28 | 10 |  |  |
| CC1=C[C@H]2Cc3[nH]c(=O)ccc3[C@]3(C1)NCCC[C@H]23 [Huperzine B] |  |  | 18 | 8 |
| CCN(CC)CCNc1ccc(CO)c2sc3ccccc3c(=O)c12 [Hycanthone] | 31 | 26 |  |  |
| COc1ccc2c(c1OC)C(=O)O[C@@H]2[C@H]1c2cc3c(cc2CCN1C)OCO3 [Hydrastine] | 0 | 19 |  |  |
| CN1CCc2cc3c(cc2C1O)OCO3 (centres unmarked) [Hydrastinine] | 1 | 4 |  |  |
| CC[C@H]1CN2CC[C@H]1C[C@H]2[C@H](O)c1ccnc2ccc(OC)cc12 [Hydroquinine] | 0 | 0 |  |  |
| CCN(CCO)CCCC(C)Nc1ccnc2cc(Cl)ccc12 (centres unmarked) [Hydroxychloroquine sulfate] | 19 | 9 |  |  |
| CN1C(=O)C(O)CC1c1cccnc1 (centres unmarked) [Hydroxycotinine] | 13 | 0 |  |  |
| C[C@H](CCC(=O)O)[C@H]1CC[C@H]2[C@@H]3C[C@H](O)[C@@H]4C[C@H](O)CC[C@]4(C)[C@H]3CC[C@]12C [Hyodeoxycholic acid] | 2 | 18 |  |  |
| COC[C@@]12CC[C@H](OC)[C@]34C(C([C@H](OC)[C@H]13)[C@]1(OC(C)=O)[C@H]3[C@@H](OC(=O)c5ccccc5)[C@](O)(C[C@H]34)[C@@H](OC)[C@@H]1O)N(C)C2 [Hypaconitine] | 0 | 6 |  |  |
| C[N+](C)(C)[C@@H](Cc1c[nH]c2ccccc12)C(=O)[O-] [Hypaphorine] | 0 | 0 |  |  |
| O=c1c(O[C@@H]2O[C@H](CO)[C@H](O)[C@H](O)[C@H]2O)c(-c2ccc(O)c(O)c2)oc2cc(O)cc(O)c12 [Hyperoside] | 14 | 11 |  |  |
| COc1ccc(-c2oc3c(CC=C(C)C)c(O[C@@H]4O[C@H](CO)[C@@H](O)[C@H](O)[C@H]4O)cc(O)c3c(=O)c2O[C@@H]2O[C@@H](C)[C@H](O)[C@@H](O)[C@H]2O)cc1 [Icariin] |  |  | 30 | 12 |
| COc1ccc(-c2oc3c(CC=C(C)C)c(O)cc(O)c3c(=O)c2O)cc1 [Icaritin] | 0 | 2 |  |  |
